Data taken from patent US20180214430A1, “Selective Inhibitors Of i-NOS For Use Against Viral Infection” (priority 2015, published 2018).
“Also recorded” adds a separate entry of the source. Where two headings read alike, the source gives them in different places. Marks after values point to notes of the source that are not given here.

Key:
RSV [1] = experiment: RSV replication in A549 epithelial cell cultures (number of infected cells, immunofluorescence); assay type: cell-based, respiratory syncytial virus (A2) Long strain; conditions: for IC50: read-out: IC50 on RSV replication (concentration needed to give a 50% reduction in number of infected cells/well)
A549 cells = experiment: Cytotoxicity assay (LDH in cell culture supernatant); assay type: cell-based, human; conditions: uninfected and RSV infected A549 cells, concentration series
Procedure: To determine the level of cell damage following infection, 50 μl of the culture supernatant from each well were transferred to the corresponding well in 96 well microtitre plate. The LDH activity of the supernatant was measured by a LDH Assay kit, according to the manufacturer's instructions (Sigma, UK). 100 μl of LDH Assay solution was added to each well and the plate was incubated for 30 min at room temperature. After incubation, the absorbance was measured at two wavelengths, 490 nm (measurement) and 690 nm (reference), using a microplate reader (BioRad Laboratories, Hercules, Calif., USA). The percent LDH release was calculated by measuring the LDH content of lysed cells that remained attached to the plate.
To determine whether the concentration series of 1400 W we used was toxic to the A549 cells, and to eliminate the possibility that the reduction in viral antigen was due to toxicity, the concentration of lactate dehydrogenase (LDH) in the cell culture supernatant was measured. LDH is an enzyme that is only released by cells when the cell membrane integrity is reduced. Therefore the concentration of LDH in the cell culture supernatant is directly correlated to cell death.

RSV [2] = experiment: Mouse infection model: viral load of the lungs (plaque assay); assay type: in vivo, balb/c mice; conditions: 10 mg/kg i.p. every 12 h
influenza virus = experiment: microbe, parasite or virus in culture; assay type: cell-based, Human influenza virus A/Puerto Rico/8/34 (H1N1)
[3] = tested on: NO production by RSV infected A549 epithelial cells; experiment: Nitric oxide released into cell culture supernatant of RSV infected cells (chemiluminescence); assay type: cell-based, human; conditions: for NO production by these cells: epithelial cells, qualitative statement
total lung NOS activity = experiment: Mouse infection model: nitrite concentration of lung homogenate; assay type: in vivo, balb/c mice; conditions: 10 mg/kg i.p. every 12 h
[4] = tested on: respiratory syncytial virus; conditions: mouse model of respiratory syncytial virus; cited from earlier work
[5] = epithelial cells, qualitative statement
[6] = A549 cells, RPMI (1.15 mM L-Arg), after 24 h, ± 95% CI
[7] = RSV infected mice, day 3, 10 mg/kg
[8] = RSV infected mice, day 3, listed as 1400 W, 10 mg/kg

In the case of `CC(=O)N[C@H](C(=O)O)C(C)(C)SN=O` (racemic) [SNAP, S-nitroso-N-acetylpenicillamine], the “viral (RSV) replication” value (RSV [1]; [5]) is reported as “did not affect”.

For `CC(=N)NCc1cccc(CN)c1` [1400W], the “toxicity: amount of LDH in the cell culture supernatant” value (A549 cells) was “not affected; also recorded: not toxic”, the “number of RSV-infected cells” value (RSV [1]; A549 cells, 24 hrs, concentrations above 1 mM) was “significantly decreased” and the IC50 (RSV [1]; [6]) was 1100 ± 500 µM. The “viral (RSV) replication” value (RSV [1]; [5]) was “strongly inhibited”, the “Log10 pfu per gram lung” value (RSV [2]; Mock infected mice, day 3) was <0.18 Log10 pfu per gram lung and the “Log10 pfu per gram lung” value (RSV [2]; Mock infected mice, day 5) was <0.18 Log10 pfu per gram lung. The “Log10 pfu per gram lung” value (RSV [2]; [7]) was 0.51 ± 0.17 Log10 pfu per gram lung, the “Log10 pfu per gram lung” value (RSV [2]; [8]) was “significantly lower” and the “Log10 pfu per gram lung” value (RSV [2]; RSV infected mice, day 5) was 1.18 ± 0.92 Log10 pfu per gram lung. The IC50 (influenza virus; A549 cells, DMEM (0.35 mM L-Arg), after 24 h, ± 95% CI, read-out: IC50 on influenza virus replication (concentration needed to give a 50% reduction in number of infected cells/well)) was 3700 ± 1000 µM, the IC50 (influenza virus; A549 cells, RPMI (1.15 mM L-Arg), after 24 h, ± 95% CI, read-out: IC50 on influenza virus replication (concentration needed to give a 50% reduction in number of infected cells/well)) was 4600 ± 900 µM and the “amount of NO released into the cell culture supernatant” value ([3]; RSV infected A549 cells, concentrations above 1 mM) was “significant decrease”. For the same molecule, the “NO production by these cells” value [3] was “reduction”, the Nitrite lung homogenate (total lung NOS activity; Mock infected mice, day 3) was 26.0 (5.4) uM and the Nitrite lung homogenate (total lung NOS activity; Mock infected mice, day 5) was 21.6 (3.0) uM. The Nitrite lung homogenate (total lung NOS activity; [7]) was 16.7 (1.9)* uM, the Nitrite lung homogenate (total lung NOS activity; [8]) was “significantly reduced” and the Nitrite lung homogenate (total lung NOS activity; RSV infected mice, day 5) was 23.7 (3.3) uM.

In the case of `CC1CCN=C(N)S1` (stereo not drawn) [AMT, 2-amino-5,6-dihydro-6-methyl-4H-1,3-thiazine], the viral titres [4] is listed as “increase”.

With `COc1ccnc(CCc2nc3ncccc3[nH]2)c1` [BYK191023] the “viral (RSV) replication” value (RSV [1]; [5]) was “strongly inhibited”, the IC50 (RSV [1]; human respiratory syncytial virus, A549 cells, RPMI (1.15 mM L-Arg), after 24 h, ± 95% CI) was 1100 ± 500 µM and the IC50 (influenza virus; unidentified influenza virus, A549, 24 h, read-out: IC50 on influenza virus replication (concentration needed to give a 50% reduction in number of infected cells/well), A549 cells, DMEM (0.35 mM L-Arg), after 24 h, ± 95% CI) was 4800 ± 400 µM. The IC50 (influenza virus; unidentified influenza virus, A549, 24 h, read-out: IC50 on influenza virus replication (concentration needed to give a 50% reduction in number of infected cells/well), A549 cells, RPMI (1.15 mM L-Arg), after 24 h, ± 95% CI) was 4300 ± 800 µM and the “NO production by these cells” value [3] was “reduction”.

In the case of `COC(=O)[C@@H](N)CCCNC(=N)N[N+](=O)[O-]` [L-NAME], the “IC50 on RSV replication (concentration needed to give a 50% reduction in number of infected cells/well)” value (RSV [1]; [6]) is reported as “No effect”, the “viral (RSV) replication” value (RSV [1]; [5]) is reported as “did not inhibit; also recorded: not to inhibit” and the “IC50 on influenza virus replication (concentration needed to give a 50% reduction in number of infected cells/well)” value (influenza virus; [6]) is reported as “No effect”.

In the case of `N=C(N)NCCC[C@H](N)C(=O)O` [L-arginine], the “IC50 on RSV replication (concentration needed to give a 50% reduction in number of infected cells/well)” value (RSV [1]; [6]) is reported as “No inhibitory”.

In the case of `Cl.N=c1c[n+](N2CCOCC2)[n-]o1` [SIN-1, 3-morpholinosydnonimine hydrochloride], the “viral (RSV) replication” value (RSV [1]; [5]) is reported as “did not affect”.

With `NCCCNCCCCN(CCCN)/[N+]([O-])=N/O` [Spermine (NONOate)] the “viral (RSV) replication” value (RSV [1]) was “inhibit”, the IC50 (RSV [1]) was 1500 ± 500 µM and the IC50 (influenza virus; read-out: IC50 on influenza virus replication (concentration needed to give a 50% reduction in number of infected cells/well)) was 600 ± 400 µM.
